Measured values taken from patent US5624906A, “Oral hygiene compositions comprising heteroatom containing alkyl aldonamide compounds” (Lever Brothers Company, Division of Conopco, Inc., priority 1994, dated 1997).
Read-outs that look alike come from different tables or passages of the source. Blank lines part the entries; values can stand above or below the compound they belong to.

What was measured:
Krafft point = format: physicochemical; conditions: 0.1% in water
Method: The temperature at and above which surfactants begin to form micelles instead of precipitates is referred to as the Krafft point (Tk) and at this temperature the solubility of a surfactant becomes equal to its CMC (numerical value at which micelles are formed).
The Krafft point was measured by preparing 650 ml of a 0.1% or 1.0% dispersion of aldonamide in water by weight. If the surfactant was soluble at room temperature, the solution was slowly cooled to 0° C. […] (less than zero). If it precipitated out of solution, the temperature at which precipitation occurs was taken as the Krafft point.
If the surfactant was insoluble at room temperature, the dispersion was slowly heated until the solution became homogeneous. It was then slowly cooled until precipitation occurred. The temperature at which the surfactant precipitates out of solution upon cooling was taken as the Krafft point.

[1] = Critical micelle concentration, Wilhelmy plate method; format: physicochemical; conditions: 60 °C
Method: The critical micelie concentration (CMC) is defined as the concentration at which a surfactant forms micelles in aqueous solution. Micellization is the preferred interfacial phenomena, since certain surfactant benefits such as detergency (the solubilization of soils), foaming, wetting or emulsification depend on the formation of these aggregates in solution.
The CMC value of C8 /C10 oxypropyl D-gluconamide was determined by plotting surface tension as a function of log(concentration) and extrapolating linear points to obtain an intersection point. The concentration at this point was taken as the CMC. The technique used was the Wilhelmy plate method and the instrument used was a Lauda Auto-Tensiometer. While wishing not to be bound to theory, it is believed that surfactants with low CMC values form micelles more readily at lower concentrations than those with high CMC values.

[2] = Water solubility (statements); format: physicochemical
[3] = cited from earlier work
[4] = Effectiveness of adsorption (surface excess concentration, Gibbs equation); format: physicochemical
Source text: The surface excess concentration at surface saturation (Γmax) is defined as a measure of the effectiveness of surfactant adsorption at the water/air interface and represents the maximum value to which adsorption can be obtained. Effectiveness of adsorption is related to the interfacial area occupied by the surfactant molecule. The smaller the effective cross-sectional area of a surfactant at the interface, the greater its effectiveness of adsorption. The effectiveness of adsorption is an important factor in determining surfactant properties such as detergency, foaming, wetting or emulsification. While not wishing to be bound by theory, it is believed that surfactants that absorb effectively at the interface tend have tightly packed coherent interfacial films and often provide better surfactant benefits than those with loosely packed noncoherent films. The effectiveness of adsorption of C8 /C10 oxypropyl D-gluconamide was determined using the Gibbs equation given as: […]
(∂γ/∂log[Conc])T

[5] = Effectiveness in reducing surface tension (surface pressure at CMC); format: physicochemical; conditions: 60 °C
Source text: As mentioned before, surface tension reduction depends on the replacement of water molecules at the interface by surfactant molecules, therefore the effectiveness of a surfactant in reducing interfacial surface tension should reflect the saturated concentration of surfactant at the interface relative to that in bulk liquid phase. During this process the surface tension of water steadily decreases as bulk phase surfactant concentration increases. This will continue until the concentration reaches the critical micelle concentration (CMC), above which the surface tension remains nearly unchanged and the interface is saturated with surfactant. The surface tension at the CMC is therefore very close to the minimum interfacial tension or maximum surface pressure that the system can achieve. The surface pressure at this point, IIcmc, is a suitable measure of the effectiveness of a surfactant in reducing surface tension and is given as:
IIcmc =20+2.3nRT(Γmax) log[CMC/C20 ]
n=1 which represents the number of ions whose surface concentration changes with the change in liquid phase surfactant concentration.
CMC/C20 =is the ratio of the critical micelie concentration to the bulk phase surfactant concentration necessary to reduce the surface tension of water by 20 dyn/cm.

[6] = 25 °C; cited from earlier work
[7] = cited from earlier work; remark: listed apart in the source
zein = system: zein
Source text: The zein solubilization assay was developed to determine the biological effects of surfactants on the skin. The protein is normally in soluble in water, but can be brought into solution by interaction with surfactants. The extent of zein dissolved is related to the irritation potential (M. J. Schwinger, Kolloid-Z. Z. Poly., 233, 848, 1969). The greater the zein solubilization, the greater the irritation potential of that surfactant on the skin.
Thus, a 1% solution of surfactant (30 mls) was added to 1.5 g of zein and stirred at room temperature for 1 hour. Residual zein was collected and dried to constant weight. Differences between starting and residual weights were used to calculate % zein solubilized.

[8] = Viscosity enhancement of sodium/ammonium lauryl sulfate compositions (formulation Example 86); format: physicochemical; conditions: 4.0% thickener, 2395/22
[9] = Surface tension at the water/air interface; format: physicochemical; conditions: 60 °C
Method: An important characteristic feature that surfactants have is the tendency for them to absorb at the water/air interface in an oriented manner, thereby altering the interfacial free energy of that surface. The surface free energy per unit area or surface tension (T), is a measure of this work and may be considered as the minimum amount of work required to bring sufficient surfactant molecules to the surface.
The surface tension (t) value of C8 /C10 oxypropyl D-gluconamide was determined and is set forth below: […]

[10] = Viscosity of sodium lauryl sulfate compositions (Example 88); format: physicochemical; conditions: for Viscosity: 22° C.
Method: The prototype surfactant composition is as follows:
(§1) The above formulations were prepared by admixing the above ingredients in listed order and heating the mixture to about 80° C. with rapid stirring. The mixture was then cooled to about 40° C., placed in a clear jar and stored at room temperature for 6 months.
It is well known that the viscosity of a liquid composition comprising of anionic surfactant can be modified by the addition of inorganic salts, such as sodium chloride. However, in the absence of an organic modifier, high levels of salt may be necessary to achieve the required viscosity which may lead to problems of storage at cold temperature or even salting out certain ingredients. In practice, however, the viscosity of a liquid composition is modified by the simultaneous addition of thickener and small amounts of inorganic salt (viscosity cobuilder). The combined effect is greater than either one alone. The viscosity of the above prototype surfactant composition comprising various amounts of heteroatom containing alkyl aldonamide compound is as follows: […]

[11] = Packing parameter / micellar shape; format: physicochemical
Source text: A theory of miceliar structure, based upon the geometry of various micelie shapes and the space occupied by the surfactant has been disclosed by J. N. Israelachvili, D. J. Mitchell and B. W. Ninham in the J. Chem. Soc. Faraday Trans. 2, 1525, 72, (1976) which is given as the packing parameter (p).
VT=V(CH3) +(nc -1)V(CH2) and represents the volume occupied by the hydrophobic groups in the miceIlar core at a given temperature.
1c =1.50+1.26 nc Å and represents the length of the hydrophobic group in the core.
am =area per molecule or the cross-sectional area occupied by the hydrophilic group at the interface.

[12] = Clarity of prototype surfactant compositions (Example 87); format: physicochemical; conditions: room temperature, 6 months
Method: The prototype shampoo composition is as follows:
as §1

[13] = Efficiency in surface tension reduction (pC20); format: physicochemical; conditions: 60 °C
Source text: Since surface tension reduction depends on the replacement of water molecules at the interface by surfactant molecules, the efficiency of a surfactant in reducing interfacial tension should reflect the concentration of surfactant at the interface relative to that in bulk liquid phase. […] This is defined as the negative logarithm of the bulk phase surfactant concentration necessary to reduce the surface tension of water by 20 dyn/cm and is given as:
C(-Δγ=20) =C20 is the bulk phase surfactant concentration necessary to reduce the surface tension of water by 20 dyn/cm.
In general, pC20 values are usually close to the minimum concentration needed to saturate the interface with surfactant molecules.

[14] = Foam stability and enhancement of sodium/ammonium lauryl sulfate, Ross-Miles (Example 86); format: physicochemical; conditions: 45° C., 4.0% foam stabilizer in sodium/ammonium lauryl sulfate composition
Method: The results were compared to identical compositions comprising petrochemically derived foam stabilizing agents, in particular, alkanolamides and alcohol ethoxylates. The prototype surfactant composition is as follows:
The compositions were prepared by admixing the ingredients in listed order with rapid stirring at 45--50° C. Foam stability and enhancement were measured at 0.1% based on sodium and ammonium lauryl sulfate (0.16% total solids) at 45° C. and 0 or 120 parts per million (ppm) hardness calcium:magnesium ion 2:1.

[15] = Foam stability and enhancement, Ross-Miles method (Example 85); format: physicochemical; conditions: triolein/calcium stearate 1 g/L, 10:90 mole % with C12 LAS, 35° C., read after 30 minutes
Method: The triolein/calcium stearate mixture was dispersed to the above solutions using a high speed shear mixer at 60° C. and then cooled to 35 ° C. The triolein/calcium stearate mixture represents an extreme type of antifoam behavior found in sebum soil.
In the Ross-Miles method, 200 mL of a surfactant solution contained in a pipette of specified dimensions with a 2.9-mm-i.d. orifice is allowed to fall 90 cm onto 50 mL of the same solution contained in a cylindrical vessel maintained at a given temperature by means of a water jacket. The height of the foam produced in the cylindrical vessel is read after 30 minutes has elapsed.
The foam stability and enhancement of the heteroatom containing alkyl aldonamides was further determined using a 10:90 mole percent solution of C8 /C10 oxypropyl D-gluconamide (C8 C10 OPG): sodium dodecyl benzene sulfonate (C12 LAS) and compared to identical solutions of dodecyl D-gluconamide (C12 Gluc): sodium dodecyl benzene sulfonate in the presence and absence of the triolein/calcium stearate antifoam.

Krafft Point (0.1%) (Krafft point): 91 °C
CMC (in words) [1]: None (Insoluble)
water solubility (in words) [2]: insoluble in water
Compound: CCCCCCCCCCCCNC(=O)[C@H](O)[C@@H](O)[C@H](O)[C@H](O)CO [C12 D-Gluconamide, dodecyl D-gluconamide]

Γmax (surface excess concentration at surface saturation) ([4]; 60 °C, estimated by extrapolating a linear line): 2.40 × 10^-10 mole/cm^2
Πcmc (surface pressure) ([5]; estimated by extrapolating a linear line): 36.3 dyn/cm
Compound: CCCCCCCCCCCCOCCOCCOCCOCCOCCOCCOCCOCCO [Dodecylocta(oxyethylene) Ether]
Πcmc (surface pressure) ([3]; 25 °C): 37.2 dyn/cm
Πcmc (surface pressure) ([3]; 40 °C): 37.3 dyn/cm
pC20 [6]: 5.20
Γmax (surface excess concentration at surface saturation) ([7]; 25 °C): 2.52 × 10^-10 mole/cm^2
Γmax (surface excess concentration at surface saturation) ([7]; 40 °C): 2.46 × 10^-10 mole/cm^2

% Zein Solubilized (zein): 6%
increase of viscosity from its normal viscosity [8]: 109 times
Surface tension γ [9]: 29.2 dyn/cm
Viscosity Increase ([10]; 1.0% thickener): 13 x
Viscosity ([10]; 1.0% thickener): 200 Centipoise
Viscosity Increase ([10]; 2.0% thickener): 27 x
Viscosity ([10]; 2.0% thickener): 400 Centipoise
Viscosity Increase ([10]; 3.0% thickener): 80 x
Viscosity ([10]; 3.0% thickener): 1200 Centipoise
Viscosity Increase ([10]; 4.0% thickener): 148 x
Viscosity ([10]; 4.0% thickener): 2220 Centipoise
Viscosity Increase ([10]; 5.0% thickener): 860 x
Viscosity ([10]; 5.0% thickener): 12900 Centipoise
1a (length of the hydrophobic group in the core) ([11]; T=333.15 K): 17.5 Å
micelles predicted from packing parameter ([11]; aqueous media): cylindrical to lameliar micelles
slope of a plot of γ versus log[Conc] ([4]; T=333.15 K): -24.57 ergs/cm^2
CMC/C20 [5]: 5.7
Πcmc (surface pressure) [5]: 38.5 dyn/cm
Appearance ([12]; 3.0% in […] sodium lauryl sulfate): Clear
Appearance ([12]; 4.0% in […] sodium lauryl sulfate): Clear
Appearance ([12]; 5.0% in […] sodium lauryl sulfate): Clear
Krafft Point (0.1%) (Krafft point): 48 °C
pC20 [13]: 4.78
Compound: C8 /C10 oxypropyl D-gluconamide

Final FH after 60 Min. ([14]; 0 ppm hardness): 70 mm
Final FH after 60 Min. ([14]; 120 ppm hardness): 53 mm
Compound: cocoamide monoethanolamine [Cocoamide MEA]

Compound: sodium dodecyl benzene sulfonate [C12 LAS]
Foam Height, With Antifoam [15]: 61 mm
